Source: patent publication US12625427B2, “Naphthalimide sulfonate derivative, and photoacid generator and photoresist composition each comprising same” (SAMYANG CORPORATION, priority 2020, dated 2026)

Assays:
[1] = Measurement of thermal stability by thermogravimetric analyzer; type: physicochemical
Excerpt: If a photoacid generator is thermally stable in a photoresist preparation process, a very good effect in terms of stability can be expected.

[2] = Measurement of solubility of photoacid generators in photoresist solvents; type: physicochemical; settings: for Solubility (w/v %) PGMEA: solvent PGMEA; for Solubility (w/v %) Cyclohexane: solvent cyclohexane
Excerpt: In preparing a photoresist composition, solubility of a photoacid generator is very important.

Compound | Temperature at which 5% weight loss occurred [1] [°C] | Solubility (w/v %) PGMEA [2] [w/v %] | Solubility (w/v %) Cyclohexane [2] [w/v %]
CCCCOC(CCC)c1ccc2c3c(cccc13)C(=O)N(OS(=O)(=O)C(F)(F)F)C2=O (stereo not shown) [Compound 8] | 232 | 50.0 | 62.3
CCCC(OC)c1ccc2c3c(cccc13)C(=O)N(OS(=O)(=O)C(F)(F)F)C2=O (stereo not shown) [Compound 11] | 230 |  | 

More lines, now with the values ahead:

Temperature at which 5% weight loss occurred [1] [°C] | Solubility (w/v %) PGMEA [2] [w/v %] | Solubility (w/v %) Cyclohexane [2] [w/v %] | Compound
234 | 60.0 | 64.1 | CCCC(OCCOC)c1ccc2c3c(cccc13)C(=O)N(OS(=O)(=O)C(F)(F)F)C2=O (stereo not shown) [Compound 19]
235 | 45.0 | 54.1 | CCCCOCCOC(CCC)c1ccc2c3c(cccc13)C(=O)N(OS(=O)(=O)C(F)(F)F)C2=O (stereo not shown) [Compound 20]
223 | 1.7 | 5.8 | O=C1c2cccc3cccc(c23)C(=O)N1OS(=O)(=O)C(F)(F)F [Formula II, reference compound]
